What was measured:
[1] = system: HIV-1 infection of TZM-bl cells; assay: HIV-1 infectivity enhancement assay, β-galactosidase luminescence; assay type: cell-based; conditions: for Rel-EFC: infection relative to EF-C (QCKIKQIINMWQ = 1); for Log10 Infection Rel EFC: log10 of infection relative to EF-C; for Log Infectivity: Log10 infection relative to EF-C, TZM-bl cells; for Log10 Infection Rel EF-C: HIV-1 infection of TZM-bl cells; for Infection (FigS19 A): mean of 3 replicates
[2] = Aggregate analysis by widefield fluorescence microscopy; assay type: physicochemical; conditions: for Number of Aggregates / Aggregate Number: ThT-stained aggregates > 10 µm2 in 1330 µm × 1330 µm, 1 mg/mL 1 d, diluted to 0.1 mg/mL with 50 µM ThT, 3D object counter ImageJ, triplicate
Method: 4 µL of 1 mg/mL peptide fibrils solution is added to a 20 µL, 50 µM ThT–solution in PBS. The mixture is incubated for 15 min at RT to allow binding of ThT dye with β–sheet rich structures. For reference PBS (4 µL) was added instead of peptide fibril solution. The samples were placed in black UV Star® 384 microliter well–plates (Greiner bio–one). Fluorescence spectra were recorded on an Infinite® M1000 PRO microplate reader (Tecan) at λem = 488 nm upon excitation at λex = 440 nm with 10 nm bandwidths and multiple reads per well (3×3). Measurements were repeated in triplicates and averaged with standard deviation. A peptide fibril was considered as ThT-active if the fluorescence intensity was at least twice as strong compared to the control (PBS containing 10% DMSO). Zeta-Potential. For the determination of the surface charge of aggregated peptides zeta-potential measurements were conducted with a Zetasizer Nano ZS, Malvern Instruments. Unless stated otherwise the peptides were dissolved from DMSO (10 mg/mL) in PBS (pH 7.4) to concentration of 1 mg/mL and incubated for 1d at RT. Just before the measurement the 60 µL of the peptides were further diluted in 600 µL KCl (aq, 1 mM) in a 1 mL disposable folded capillary cells (DTS–1060, Zetasizer Nano series, Malvern). The zeta potential of the peptides was derived from the electrophoretic mobility based on the Smoluchowski formula. All measurements were averaged over two individually performed experiments and conducted in triplicates for each sample. Aggregate analysis. […] Furthermore, fluorescence microscopy was conducted by staining 1 µL preformed fibrils (1 mg/mL) with 9 µL ThT (50 µM). Brightfield microscopy was performed simultaneously to evaluate aggregation also for non ThT-active fibrils. The measurements were performed on a Leica DMi8 microscope with 10x air objective and equipped with a Leica MC170 HD camera with a filter setting λem = 527/30 nm upon excitation at λex = 480/40 nm) and processed with the Leica LASX software. To quantify size and number of microscopic aggregation of particles > 10 µm^2 at least 3 independently measured images were analyzed via the 3D object counter analysis tool of ImageJ, v 1.53f51. Sum–frequency generation. The SFG experiments were carried out with a femtosecond Ti: Sapphire amplified laser system (Spitfire Ace, Spectra–Physics, 800 nm, 40 fs, 1 kHz) with 5 W output power. We used 2 W to pump an optical parametric amplifier (TOPAS, light conversion) with a non–collinear difference frequency generation stage to generate broadband IR pulses. Another 1 W of the laser output passed through an etalon to generate narrowband visible pulses (10 cm^-1). The incident angles of the visible and IR beams were 36° and 41° with respect to the surface normal, respectively. The visible (13 µJ) and IR (5 µJ) pulses were overlapped spatially and temporally at the sample position. Subsequently, the generated SFG pulse was guided into a spectrograph (Acton SP 300i, Princeton Instruments), and detected with an EMCCD (Newton, Andor Technology). To avoid IR absorption of water vapor, we purged N2 for the measurement. All spectra were collected in the ssp (denoting s-, s- and p-polarized SFG, visible and IR, respectively) polarization combination. The spectra were normalized to the non–resonant signal taken from z–cut quartz after subtracting a background spectrum.
Table S8 Summary of aggregate analysis from widefield microscopy measurements (Figure S32). The Number of aggregated peptides, the median size area, average size area
and the cumulative total size area of all particles (> 10 µm2) in an area of 1330 µm × 1330 µm was determined via automated 3D object counting (ImageJ) in triplicate
measurements (Std. Dev.).
Aggregate Std. Dev. Std. Dev. Std. Dev. Std. Dev.
Sequence Abs. Inf. / Std. Dev. / Count Rate / Std. Dev. Number Aggregate Median Area Median Area Average Area Average Area Total Area/ Total Area/ […]

[3] = Turbidity, derived count rate of scattered light; assay type: physicochemical; conditions: for Count Rate: derived count rate of scattered light (turbidity); for Log10 Count Rate: turbidity, derived count rate of scattered light, data of Figure 2D
[4] = Conversion rate (CR) assay with fluorescamine; assay type: physicochemical; set-up: key to CR: % = 100−100×filtrate/original fluorescence intensity; conditions: conversion rate, fluorescamine assay; for CR / %: Fig. S7 panel B
Outline: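 1 mg/mL PNF solutions lyophilized and powders measured by diamond ATR FT-IR (2 cm^-1 resolution, 64 scans); β-sheet content calculated per a prior method. For CR, PNF solution centrifuged through 3 kDa MWCO filter (16200 x g, 4 °C, 45 min); filtrate and unfiltered sample lyophilized, dissolved in DMSO, reacted with fluorescamine.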

[5] = previously reported peptides only; ref sieste 2021 or Schilling2019; cited from earlier work
Text: Supplement 41467_2023_40663_MOESM7_ESM.zip/FigS17.csv, table | column: Conversion Rate / % ( from sieste 2021 or Schilling2019)

[6] = Fig. S7 panel A (plotted against β-sheet content), asymmetric std dev errors
[7] = Fig. S7 panel B (plotted against CR), rounded to two decimals, asymmetric std dev errors
[8] = Log10 of infection rate relative to EF-C, Figure 3A source data
[9] = infection rate relative to EF-C, log10, data of Figure 2D
[10] = infection rate relative to EF-C, log10, source data of Figure 2C
[11] = Log10 of infection relative to EF-C, all peptides of FigS16

HHHHKIKIQINMYYYY
Rel-EFC ([1]; 1.3 µM peptide): 1,11 | Log10 Infection Rel EFC ([1]; 1.3 µM peptide): 0,04 | Log Infectivity [1, 6]: 0.04454 | Log Infectivity [1, 7]: 0.04 | Log10 Infection Rel EF-C [1, 8]: 0.04 | Log10 Infection Rel EF-C [1, 9]: 0.04454 | Log10 Infection Rel EF-C [1, 10]: 0.04454 | Log10 of Rel to EFC (Feb2021) [1, 11]: 0.04 | Number of Aggregates / Aggregate Number [2]: 234 | Count Rate [3]: 5659 | Log10 Count Rate [3]: 3.753 | CR / % [4]: 98.4% | CR [4]: 98.42

HHHHKIKIKIKIWWWW [TM4]
Infection (FigS19 A) ([1]; 0.26 µM peptide): 15326.66667 RLU/s | Infection (FigS19 A) ([1]; 1.3 µM peptide): 20796.66667 RLU/s | Infection (FigS19 A) ([1]; 6.5 µM peptide): 12450 RLU/s | Absolute Infectivity / RLU /s (Feb2021) ([1]; Feb2021, figures match the 1.3 µM column): 20796.66667 RLU /s | n-fold to virus (Feb2021) ([1]; Feb2021, infectivity relative to virus only): 15.92 | Log10 of Rel to EFC (Feb2021) ([1]; Feb2021, log10 of infectivity relative to EF-C): -0.4216 | Rel-to EFC (Feb-2021) ([1]; Feb2021, n-fold infectivity relative to EF-C): 0.3788 | Rel-to EFC ([1]; Fig S8 panels B, D, infectivity enhancement relative to EF-C): 0.3788 | n-fold to virus ([1]; Fig S8 panels B, D, infectivity n-fold relative to virus alone): 15.92 | infectivity ([1]; infectivity class (low / medium / high) of each library peptide, main list in c1-c6, same classes repeated in sub-lists of sequences containing the hydrophobicity/charge patterns P+,H0,P+,H0,P0,H0,P0, P+,H0,P0,H0,P0,H0,P0, P+,H0,P0,H0): medium | Log10 Inf. rel. to EF-C ([1]; log10 of HIV-1 infection of TZM-bl cells relative to EF-C, Fig S15 source data, asymmetric std dev errors): -0.4216 | Avg Area in 3 *(1330 µm *1330 µm) ([2]; Fig S8 panels A, C): 50.02 | Log 10 Number of aggregates in 3 * (1330 µm *1330 µm) ([2]; Fig S8 panels A, C): 2.649 | Median Area in 3 * (1330 µm *1330 µm) ([2]; Fig S8 panels A, C): 24.51 | log Avg Area in 3 * ( (1330 µm *1330 µm)) ([2]; Fig S8 panels A, C): 1.699 | log Median Area in 3 * ( (1330 µm *1330 µm)) ([2]; Fig S8 panels A, C): 1.389 | log Total Area of all particles in 3 * (1330 µm *1330 µm) ([2]; Fig S8 panels A, C): 4.348 | Number of aggregates in 3 * (1330 µm *1330 µm) ([2]; Fig S8 panels A, C, 3 fields of 1330 µm x 1330 µm): 445.7 | Avg Area in 3 *(1330 µm *1330 µm) ([2]; Fig S8 panels B, D, average aggregate area, 3 fields of 1330 µm x 1330 µm): 50.02 | Median Area in 3 * (1330 µm *1330 µm) ([2]; Fig S8 panels B, D, median aggregate area, 3 fields of 1330 µm x 1330 µm): 24.51 | Total Area of all particles in 3 * (1330 µm *1330 µm) ([2]; Fig S8 panels B, D, total area of all particles, 3 fields of 1330 µm x 1330 µm): 22293.86733 | Number of aggregates in 3 * (1330 µm *1330 µm) ([2]; Fig S8 panels B, D, widefield fluorescence microscopy, 3 fields of 1330 µm x 1330 µm): 445.7 | Conversion Rate / % ( from sieste 2021 or Schilling2019) [5]: 96%

CKIKQIINMWQ
Rel-EFC ([1]; 1.3 µM peptide): 1,24 | Log10 Infection Rel EFC ([1]; 1.3 µM peptide): 0,09 | Log Infectivity [1, 6]: 0.09484 | Log Infectivity [1, 7]: 0.09 | Log10 Infection Rel EF-C [1, 8]: 0.09 | Log10 Infection Rel EF-C [1, 9]: 0.09484 | Log10 Infection Rel EF-C [1, 10]: 0.09484 | Log10 of Rel to EFC (Feb2021) [1, 11]: 0.09 | Number of Aggregates / Aggregate Number [2]: 195 | Count Rate [3]: 8317 | Log10 Count Rate [3]: 3.92 | CR / % [4]: 50% | CR [4]: 50

CSISIQI
Rel-EFC ([1]; 1.3 µM peptide): 0,06 | Log10 Infection Rel EFC ([1]; 1.3 µM peptide): -1,25 | Log Infectivity [1, 6]: -1.252 | Log Infectivity [1, 7]: -1.25 | Log10 Infection Rel EF-C [1, 8]: -1.25 | Log10 Infection Rel EF-C [1, 9]: -1.252 | Log10 Infection Rel EF-C [1, 10]: -1.252 | Abs. Infection at 0.26 µM ([1]; peptide 0.26 µM, mean of n = 3, Figure 4A): 1390 | Infect 1 0.26 µM ([1]; peptide 0.26 µM, replicate 1, absolute infection signal, Figure 4A): 1340 | Infect 2 0.26 µM ([1]; peptide 0.26 µM, replicate 2, absolute infection signal, Figure 4A): 1160 | Infect 3 0.26 µM ([1]; peptide 0.26 µM, replicate 3, absolute infection signal, Figure 4A): 1670 | Abs. Infection at 1.3 µM ([1]; peptide 1.3 µM, mean of n = 3, Figure 4A): 3087 | Infect 1 .3 µM ([1]; peptide 1.3 µM, replicate 1, absolute infection signal, Figure 4A): 3310 | Infect 2 1.3µM ([1]; peptide 1.3 µM, replicate 2, absolute infection signal, Figure 4A): 2600 | Infect 3 1.3 µM ([1]; peptide 1.3 µM, replicate 3, absolute infection signal, Figure 4A): 3350 | Number of Aggregates / Aggregate Number [2]: 123 | Count Rate [3]: 10241.1 | Log10 Count Rate [3]: 4.01 | CR / % [4]: 79.3% | CR [4]: 79.31

KIKIQIC
Rel-EFC ([1]; 1.3 µM peptide): 0,61 | Log10 Infection Rel EFC ([1]; 1.3 µM peptide): -0,22 | Log Infectivity [1, 6]: -0.2164 | Log Infectivity [1, 7]: -0.22 | Log10 Infection Rel EF-C [1, 8]: -0.22 | Log10 Infection Rel EF-C [1, 9]: -0.2164 | Log10 Infection Rel EF-C [1, 10]: -0.2164 | Log10 of Rel to EFC (Feb2021) [1, 11]: -0.22 | Infection RLU/s, 1.3 µm abs ([1]; peptide 1.3 µm (so in the source), mean of the 3 replicates): 9447 RLU/s | Number of Aggregates / Aggregate Number [2]: 82 | Count Rate [3]: 980.7 | Log10 Count Rate [3]: 2.992 | CR / % [4]: 51.5% | CR [4]: 51.55
